Drawing on US10844044B2 (Vanderbilt University, priority 2018, dated 2020), this text covers GI50 and Ki for 23 molecules.

In general, Ki refers to the equilibrium dissociation constant of an inhibitor or competing ligand from its target.

The test system of assay [1] is MV4:11 human cancer cell lines. Briefly: Anti-proliferative activity, CellTiter-Glo viability assay, 7 day protocol. Type of assay: cell-based. As to conditions: Homo sapiens, MV4-11, 168 h, MV4:11 cells, 7 day incubation, read-out: GI50 on cellular proliferation of MV4:11 human cancer cell lines. A digest of the protocol:
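Luminescent CellTiter-Glo readout after 7-day compound exposure of MV4:11 cells plated at 3600 cells/ml (final DMSO 0.1%). GI50 derived from three biological × three technical replicates, reported as mean ± S.E.M.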
Background: Cellular ATP, detected with luciferase, serves as a proxy for viable cell number.

The target in assay [2] is WDR5 (Homo sapiens (Human), UniProt P61964). Briefly: TR-FRET binding assay (displacement of 10mer-Thr-FAM probe from WDR5).
The mark [3] stands for this setting: read-out: Ki for Inhibition of WDR5 by TR-FRET assay, TR-FRET, 10mer-Thr-FAM probe, WDR5-His tag 2 nM, pH 7.0.
The mark [4] stands for this setting: read-out: Ki for Inhibition of WDR5 by TR-FRET assay.

Where two headings read alike, the source gives them in different places.

For `CCn1cc(-c2cc(CN3CCN(C)C3=N)cc(C(=O)N[C@H](c3ccc(F)c(Cl)c3)C3CC3)c2)c(C(F)(F)F)n1` [Example 214, (S)—N-((3-Chloro-4-fluorophenyl)(cyclopropyl)methyl)-3-(1-ethyl-3-(trifluoromethyl)-1H pyrazol-4-yl)-5-((2-imino-3-methylimidazolidin-1-yl)methyl)benzamide], the GI50 in assay [1] is less than 100 nM. This molecule also gave a Ki in assay [2] of less than 0.1 nM.
As for `Cc1cc([C@@H](NC(=O)c2cc(CN3CCN(C)C3=N)cc(-c3cn(C(C)C)nc3C(F)(F)F)c2)C2CC2)ccc1F` [Example 215, (S)—N-(Cyclopropyl(4-fluoro-3-methylphenyl)methyl)-3-((2-imino-3-methylimidazolidin-1-yl)methyl)-5-(1-isopropyl-3-(trifluoromethyl)-1H-pyrazol-4-yl)benzamide], in assay [1], the GI50 is less than 100 nM. The same molecule returned a Ki in assay [2] of less than 0.1 nM.
Regarding `CC(C)n1cc(-c2cc(CN3CCN(C)C3=N)cc(C(=O)N[C@H](c3ccc(F)c(F)c3)C3CC3)c2)c(C(F)(F)F)n1` [Example 216, (S)—N-(Cyclopropyl(3,4-difluorophenyl)methyl)-3-((2-imino-3-methylimidazolidin-1-yl)methyl)-5-(1-isopropyl-3-(trifluoromethyl)-1H-pyrazol-4-yl)benzamide], the GI50 in assay [1] is less than 100 nM. In addition, in assay [2] (setting [3]), the Ki was less than 0.1 nM.
For `Cc1cc([C@@H](NC(=O)c2cc(Cn3ccn(C)c3=N)cc(C3(C(F)(F)F)CC3)c2)C2CC2)ccc1F` [Example 217, (S)—N-(cyclopropyl(4-fluoro-3-methylphenyl)methyl)-3-((2imino-3-methyl-2,3-dihydro-1H-imidazol-1-yl)methyl)-5-(1-(trifluoromethyl)cyclopropyl)benzamide], the GI50 in assay [1] was less than 100 nM. In assay [2] (setting [3]), the Ki is less than 0.1 nM.
Take `CN1CCN(Cc2cc(C(=O)N[C@H](c3ccc(F)c(Cl)c3)C3CC3)cc(-c3cccnc3C(F)(F)F)c2)C1=N` [Example 219, (S)—N-((3-chloro-4-fluorophenyl)(cyclopropyl)methyl)-3-((2-imino-3-methylimidazolidin 1-yl)methyl)-5-(2-(trifluoromethyl)pyridin-3-yl)benzamide]: the GI50 in assay [1] is less than 100 nM. The Ki in assay [2] (setting [3]) was less than 0.1 nM.
The corresponding values for `Cc1cccc(C2(NC(=O)c3cc(Cn4ccn(C)c4=N)cc(-c4cn(C)nc4C(F)(F)F)c3)CCC2)c1` [Example 220, 3-((2-Imino-3-methyl-2,3-dihydro-1H-imidazol-1-yl)methyl)-5-(1-methyl-3-(trifluoromethyl)-1H-pyrazol-4-yl)-N-(1-(m-tolyl)cyclobutyl)benzamide] are 220 nM and less than 0.1 nM.
Regarding `COc1cc([C@@H](NC(=O)c2cc(Cn3ccn(C)c3=N)cc(-c3cn(C)nc3C(F)(F)F)c2)C2CC2)ncc1F` [Example 221, (S)—N-(Cyclopropyl(5-fluoro-4-methoxypyridin-2-yl)methyl)-3-((2-imino-3-methyl-2,3-dihydro-1-imidazol-1-yl)methyl)-5-(1-methyl-3-(trifluoromethyl)-1H-pyrazol-4-yl)benzamide], in assay [1], the GI50 was less than 100 nM. Further, the inhibition constant (Ki) in assay [2] (setting [3]) is less than 0.1 nM.
For the molecule `Cc1cc([C@@H](NC(=O)c2cc(Cn3ccn(C)c3=N)cc(N3CCOC[C@H]3C)c2)C2CC2)ccc1F` [Example 227, N—((S)-cyclopropyl(4-fluoro-3-methylphenyl)methyl)-3-((2-imino-3-methyl-2,3-dihydro-1H-imidazol-1-yl)methyl)-5-((R)-3-methylmorpholino)benzamide], the GI50 in assay [1] amounted to 940 nM. In assay [2] (setting [4]), the Ki was 2.1 nM.
Consider `COc1cc(CNC(=O)c2cc(Cn3ccoc3=N)cc(-c3ccc(F)cc3C)c2)cc(OC)c1` [Example 229, N-(3,5-Dimethoxybenzyl)-4′-fluoro-5-((2-iminooxazol-3(2H)-yl)methyl)-2′-methyl-[1,1′-biphenyl]-3-carboxamide], for which the GI50 in assay [1] amounted to 550 nM. Also, in assay [2], the affinity, expressed as Ki, was 0.21 nM.
Take `COc1cc(OC)cc(C(NC(=O)c2cc(Cn3ccoc3=N)cc(-c3ncccc3C(F)(F)F)c2)C2CC2)c1` (stereo not shown) [Example 235, N-(Cyclopropyl(3,5-dimethoxyphenyl)methyl)-3-((2-iminooxazol-3(2H)-yl)methyl)-5-(3-(trifluoromethyl)pyridin-2-yl)benzamide]: the GI50 in assay [1] is 3100 nM. Further, the Ki in assay [2] (setting [3]) was determined as 3.5 nM.
As to `COc1cc(OC)cc(C(NC(=O)c2cc(Cn3ccoc3=N)cc(-c3ccc(F)cc3OC(F)F)c2)C2CC2)c1` (stereo not shown) [Example 236, N-(Cyclopropyl(3,5-dimethoxyphenyl)methyl)-2′-(difluoromethoxy)-4′-fluoro-5-((2-iminooxazol-3(2H)-yl)methyl)-[1,1′-biphenyl]-3-carboxamide], in assay [1], the GI50 was 450 nM. Besides, the Ki in assay [2] (setting [3]) came to 0.16 nM.
Consider `COc1cc(CNC(=O)c2cc(Cn3ccoc3=N)cc(-c3ncc(F)cc3C)c2)cc(OC)c1` [Example 238, N-(3,5-Dimethoxybenzyl)-3-(5-fluoro-3-methylpyridin-2-yl)-5-((2-iminooxazol-3(2H)-yl)methyl)benzamide], for which, in assay [1], the GI50 came out at 3800 nM. For the same molecule, in assay [2] (setting [4]), the Ki is 2.9 nM.
Regarding `Cc1ccnc([C@@H](NC(=O)c2cc(Cn3ccoc3=N)cc(-c3ccc(F)cc3C)c2)C2CC2)c1` [Example 247, (S)—N-(Cyclopropyl(4-methylpyridin-2-yl)methyl)-4′-fluoro-5-((2-iminooxazol-3(2H)-yl)methyl)-2′-methyl-[1,1′-biphenyl]-3-carboxamide], in assay [1], the GI50 was found to be 270 nM. In assay [2] (setting [3]), the Ki was 0.14 nM.
Consider `Cc1cc([C@@H](NC(=O)c2cc(Cn3ccoc3=N)cc(-c3ccc(F)cc3Cl)c2)C2CC2)ccc1F` [Example 248, (S)-2′-Chloro-N-(cyclopropyl(4-fluoro-3-methylphenyl)methyl)-4′-fluoro-5-((2-iminooxazol-3(2H)-yl)methyl)-[1,1′-biphenyl]-3-carboxamide], for which the GI50 in assay [1] stood at 120 nM. Besides, the Ki in assay [2] (setting [3]) was less than 0.1 nM.
The matching figures for `Cc1cn(Cc2cc(C(=O)N[C@H](c3ccc(F)c(C)c3)C3CC3)cc(-c3cccnc3C(F)(F)F)c2)c(=N)o1` [Example 250, (S)—N-(Cyclopropyl(4-fluoro-3-methylphenyl)methyl)-3-((2-imino-5-methyloxazol-3(2H)-yl)methyl)-5-(2-(trifluoromethyl)pyridin-3-yl)benzamide]: 570 nM and 0.4 nM.
As to `Cc1cc([C@@H](NC(=O)c2cc(Cn3ccoc3=N)cc(-c3cn(C)nc3C(F)(F)F)c2)C2CC2)ccc1F` [Example 259, (S)—N-(Cyclopropyl(4-fluoro-3-methylphenyl)methyl)-3-((2-iminooxazol-3(2H)-yl)methyl)-5-(1-methyl-3-(trifluoromethyl)-1H-pyrazol-4-yl)benzamide], the GI50 in assay [1] is less than 100 nM. In addition, the Ki in assay [2] (setting [4]) was less than 0.1 nM.
Consider `Cc1cc([C@@H](NC(=O)c2cc(Cn3ccoc3=N)cc(-c3cccnc3OC(F)F)c2)C2CC2)ccc1F` [Example 261, (S)—N-(Cyclopropyl(4-fluoro-3-methylphenyl)methyl)-3-(2-(difluoromethoxy)pyridin-3-yl)-5-((2-iminooxazol-3(2H)-yl)methyl)benzamide], for which the GI50 in assay [1] amounted to 730 nM. For the same molecule, the inhibition constant Ki in assay [2] (setting [3]) was 0.28 nM.
For `Cn1cc(-c2cc(Cn3ccoc3=N)cc(C(=O)N[C@H](c3ccc(Cl)c(Cl)c3)C3CC3)c2)c(C(F)(F)F)n1` [Example 268, (S)—N-(Cyclopropyl(3,4-dichlorophenyl)methyl)-3-((2-iminooxazol-3(2H)-yl)methyl)-5-(1-methyl-3-(trifluoromethyl)-1 t-pyrazol-4-yl)benzamide], in assay [1], the GI50 is less than 100 nM. In assay [2] (setting [4]), the inhibitory constant (Ki) was less than 0.1 nM.
In the case of `Cn1cc(-c2cc(CN3CCOC3=N)cc(C(=O)N[C@H](c3ccc(Cl)c(Cl)c3)C3CC3)c2)c(C(F)(F)F)n1` [Example 269, (S)—V—N-(Cyclopropyl(3,4-dichlorophenyl)methyl)-3-((2-iminooxazolidin-3-yl)methyl)-5-(1-methyl-3-(trifluoromethyl)-1H-pyrazol-4-yl)benzamide], in assay [1], the GI50 is less than 100 nM. The Ki in assay [2] (setting [3]) was less than 0.1 nM.
With `Cc1cc([C@@H](NC(=O)c2cc(CN3CCOC3=N)cc(-c3ccc(F)cc3C(F)F)c2)C2CC2)ccc1F` [Example 272, (S)—N-(Cyclopropyl(4-fluoro-3-methylphenyl)methyl)-2′-(difluoromethyl)-4′-fluoro-5-((2-iminooxazolidin-3-yl)methyl)-[1,1′-biphenyl]-3-carboxamide], the GI50 in assay [1] turned out to be 100 nM. In addition, the Ki in assay [2] (setting [3]) is less than 0.1 nM.
For the molecule `Cc1cc([C@@H](NC(=O)c2cc(CN3CCOC3=N)cc(-c3ccc(F)cc3OC(F)F)c2)C2CC2)ccc1F` [Example 273, (S)—N-(Cyclopropyl(4-fluoro-3-methylphenyl)methyl)-2′-(difluoromethoxy)-4′-fluoro-5-((2-iminooxazolidin-3-yl)methyl)-[1,1′-biphenyl]-3-carboxamide], in assay [1], the GI50 was 140 nM. Besides, in assay [2] (setting [3]), the Ki is less than 0.1 nM.
For `Cc1cc([C@@H](NC(=O)c2cc(Cn3ccoc3=N)cc(-c3ccc(F)cc3C(F)F)c2)C2CC2)ccc1F` [Example 274, (S)—N-(Cyclopropyl(4-fluoro-3-methylphenyl)methyl)-2′-(difluoromethyl)-4′-fluoro-5-((2-iminooxazol-3(2H)-yl)methyl)-[1,1′-biphenyl]-3-carboxamide], in assay [1], the GI50 is less than 100 nM. Besides, the Ki in assay [2] (setting [3]) was less than 0.1 nM.
As for `Cc1cc([C@@H](NC(=O)c2cc(CN3CCOC3=N)cc(-c3cn(C(C)C)nc3C(F)(F)F)c2)C2CC2)ccc1F` [Example 275, (S)—N-(Cyclopropyl(4-fluoro-3-methylphenyl)methyl)-3-((2iminooxazolidin-3-yl)methyl)-5-(1-isopropyl-3-(trifluoromethyl)-1H-pyrazol-4-yl)benzamide], in assay [1], the GI50 was less than 100 nM. Further, the Ki in assay [2] (setting [3]) was less than 0.1 nM.
